8 compounds from ChEMBL document CHEMBL1201862, “PubChem BioAssay data set” (2004) can be followed below.

What all share (format): functional
Assay [1] can be described thus: Counterscreen for antagonists of the orexin 1 receptor (OX1R; HCRTR1): Fluorescence-based cell-based high throughput dose response assay to identify antagonists of the parental CHO cell line. [Related pubchem assays (depositor defined):AID434989, AID435008, AID463079, AID485270, AID492963, AID492964, AID492965, AID493232, AID504699, AID504701]. On the technique in general: A counterscreen serves to expose hits that act by an unwanted route or on another target.

Assay [2] deals with T1, Orexin/Hypocretin receptor type 1 (Homo sapiens, UniProt O43613).
T1 sequence (O43613 whole entry): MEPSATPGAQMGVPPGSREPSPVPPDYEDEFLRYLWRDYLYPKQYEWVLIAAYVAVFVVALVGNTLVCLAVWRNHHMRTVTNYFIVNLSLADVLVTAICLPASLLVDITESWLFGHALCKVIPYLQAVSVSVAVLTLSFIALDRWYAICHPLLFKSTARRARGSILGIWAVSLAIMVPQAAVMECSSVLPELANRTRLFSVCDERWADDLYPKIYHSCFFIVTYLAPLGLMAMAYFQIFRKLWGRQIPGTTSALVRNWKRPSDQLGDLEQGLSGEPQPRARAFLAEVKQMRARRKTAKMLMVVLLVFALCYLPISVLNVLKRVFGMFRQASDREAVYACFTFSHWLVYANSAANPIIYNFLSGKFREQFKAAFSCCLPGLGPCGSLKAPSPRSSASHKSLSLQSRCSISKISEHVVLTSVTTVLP
Description: Fluorescence-based cell-based high throughput dose response assay for antagonists of the orexin 1 receptor (OX1R; HCRTR1). [Related pubchem assays (depositor defined):AID434989, AID435008, AID463079, AID485270, AID492963, AID492964, AID492965, AID493232, AID504717, AID504718].

Assay [3] concerns the target T2, Orexin receptor type 2 (Homo sapiens, UniProt O43614).
T2 sequence (O43614 whole entry): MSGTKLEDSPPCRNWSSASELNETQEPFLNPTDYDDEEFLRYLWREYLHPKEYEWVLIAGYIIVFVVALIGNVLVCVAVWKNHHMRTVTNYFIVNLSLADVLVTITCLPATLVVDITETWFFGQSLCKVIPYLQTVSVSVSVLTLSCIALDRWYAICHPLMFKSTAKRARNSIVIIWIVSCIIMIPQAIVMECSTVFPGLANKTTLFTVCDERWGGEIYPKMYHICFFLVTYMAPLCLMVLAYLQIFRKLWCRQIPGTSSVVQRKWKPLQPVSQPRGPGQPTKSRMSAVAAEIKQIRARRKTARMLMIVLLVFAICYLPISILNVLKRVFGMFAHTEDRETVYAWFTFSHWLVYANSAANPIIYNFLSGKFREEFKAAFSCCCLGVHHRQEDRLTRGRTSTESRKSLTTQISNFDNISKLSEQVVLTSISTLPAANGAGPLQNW
Briefly: Counterscreen assay for antagonists of the orexin 1 receptor (OX1R; HCRTR1): Fluorescence-based cell-based dose response assay for antagonists of the orexin 2 receptor (OX2R; HCRTR2), run by assay provider.

Assay [4] addresses T1, Orexin/Hypocretin receptor type 1. Description: Homogeneous Time Resolved Fluorescence (HTRF)-based cell-based high throughput dose response assay for antagonists of the orexin 1 receptor (OX1R; HCRTR1). [Related pubchem assays (depositor defined):AID434989, AID435008, AID463079, AID485270, AID492963, AID492964, AID492965, AID493232, AID504717, AID504718]. Background: In TR-FRET formats the signal depends on donor and acceptor labels being close together.

For assay [5], the target named is T2, Orexin receptor type 2. Description: Counterscreen assay for antagonists of the orexin 1 receptor (OX1R; HCRTR1): Homogeneous Time Resolved Fluorescence (HTRF)-based cell-based dose response assay for antagonists of the orexin 2 receptor (OX2R; HCRTR2), run by assay provider.
Another assay relates to CHO-K1. Description: Counterscreen for antagonists of the orexin 1 receptor (OX1R; HCRTR1): Homogeneous time resolved fluorescence (HTRF)-based cell-based dose response assay to identify antagonists of the parental CHO-K1 cell line. [Related pubchem assays (depositor defined):AID434989, AID435008, AID463079, AID485270, AID492963, AID492964, AID492965, AID493232, AID504699, AID504701]. To be noted: Cricetulus griseus.

The target in a further assay is T3, Hexokinase HKDC1 (Homo sapiens, UniProt Q2TB90).
T3 sequence (Q2TB90 whole entry): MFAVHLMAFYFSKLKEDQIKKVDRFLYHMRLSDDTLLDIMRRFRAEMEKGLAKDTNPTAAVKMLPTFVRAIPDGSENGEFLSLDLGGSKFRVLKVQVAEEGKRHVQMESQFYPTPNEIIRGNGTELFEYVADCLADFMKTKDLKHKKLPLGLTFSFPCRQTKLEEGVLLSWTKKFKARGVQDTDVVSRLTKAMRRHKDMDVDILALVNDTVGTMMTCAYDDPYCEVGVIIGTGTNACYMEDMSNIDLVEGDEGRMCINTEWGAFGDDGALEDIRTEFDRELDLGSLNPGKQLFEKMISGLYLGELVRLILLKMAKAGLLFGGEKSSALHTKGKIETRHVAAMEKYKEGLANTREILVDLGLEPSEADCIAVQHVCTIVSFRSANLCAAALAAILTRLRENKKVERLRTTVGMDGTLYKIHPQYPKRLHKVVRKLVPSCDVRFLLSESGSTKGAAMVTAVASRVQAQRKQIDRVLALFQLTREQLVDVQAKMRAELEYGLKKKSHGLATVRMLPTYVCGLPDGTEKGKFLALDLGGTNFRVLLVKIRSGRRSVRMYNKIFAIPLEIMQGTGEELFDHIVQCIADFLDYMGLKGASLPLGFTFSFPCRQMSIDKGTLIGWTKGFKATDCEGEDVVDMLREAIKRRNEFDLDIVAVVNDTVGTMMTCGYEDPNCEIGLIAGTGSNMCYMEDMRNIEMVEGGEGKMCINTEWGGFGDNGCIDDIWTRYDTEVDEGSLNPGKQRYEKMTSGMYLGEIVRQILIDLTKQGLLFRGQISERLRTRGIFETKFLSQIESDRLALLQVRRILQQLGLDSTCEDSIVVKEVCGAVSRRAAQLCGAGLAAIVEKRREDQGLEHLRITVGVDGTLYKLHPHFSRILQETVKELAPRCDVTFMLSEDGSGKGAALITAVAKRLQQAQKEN
Description: SAR analysis of small molecule inhibitors of hexokinase domain containing I (HKDC1). [Related pubchem assays (depositor defined):AID493160, AID493190].

Another assay addresses Hexokinase-1 (Homo sapiens, UniProt P19367). Briefly: SAR analysis of small molecule inhibitors of hexokinase domain containing I (HKDC1) in the hexokinase 1 selectivity assay. [Related pubchem assays (depositor defined):AID493160, AID493190].
Another assay deals with T4, Phospholipase D1 (Homo sapiens, UniProt Q13393).
T4 sequence (Q13393 whole entry): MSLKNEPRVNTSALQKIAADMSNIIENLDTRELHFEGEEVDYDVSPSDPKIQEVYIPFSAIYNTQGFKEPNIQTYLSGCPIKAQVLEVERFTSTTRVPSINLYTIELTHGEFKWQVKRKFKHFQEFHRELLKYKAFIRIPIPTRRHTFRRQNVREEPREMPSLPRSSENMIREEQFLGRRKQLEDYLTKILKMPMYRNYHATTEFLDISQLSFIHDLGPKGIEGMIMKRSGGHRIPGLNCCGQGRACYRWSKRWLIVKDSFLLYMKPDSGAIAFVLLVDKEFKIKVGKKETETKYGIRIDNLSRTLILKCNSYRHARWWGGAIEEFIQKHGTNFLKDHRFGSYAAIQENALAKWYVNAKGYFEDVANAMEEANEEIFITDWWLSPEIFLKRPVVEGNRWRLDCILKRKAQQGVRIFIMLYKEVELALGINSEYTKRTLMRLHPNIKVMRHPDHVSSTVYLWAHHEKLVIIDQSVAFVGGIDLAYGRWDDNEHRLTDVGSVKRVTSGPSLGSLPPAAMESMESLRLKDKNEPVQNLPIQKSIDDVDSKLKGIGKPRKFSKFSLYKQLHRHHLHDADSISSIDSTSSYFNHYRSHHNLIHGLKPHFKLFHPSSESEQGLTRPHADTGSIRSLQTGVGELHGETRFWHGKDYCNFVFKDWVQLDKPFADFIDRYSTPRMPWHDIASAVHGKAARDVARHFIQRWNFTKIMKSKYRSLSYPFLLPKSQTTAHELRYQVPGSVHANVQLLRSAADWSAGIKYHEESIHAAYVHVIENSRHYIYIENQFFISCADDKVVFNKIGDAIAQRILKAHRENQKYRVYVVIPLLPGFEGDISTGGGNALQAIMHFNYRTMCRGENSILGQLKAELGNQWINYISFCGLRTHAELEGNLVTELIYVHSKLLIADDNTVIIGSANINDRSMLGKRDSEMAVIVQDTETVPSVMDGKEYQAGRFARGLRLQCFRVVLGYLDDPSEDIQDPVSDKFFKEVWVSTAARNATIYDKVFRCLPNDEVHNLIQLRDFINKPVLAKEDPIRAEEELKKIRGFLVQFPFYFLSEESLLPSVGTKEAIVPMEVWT
Briefly: cellular phospholipase D1 inhibition IC50 – cell-based, dose response (AID 602151).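 Further: cellular PLD1 assay in Calu-1 cells stimulated with PMA.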

For the next assay, the target named is Phospholipase D2 (Homo sapiens, UniProt O14939). Description: cellular phospholipase D2 inhibition IC50 – cell-based, dose response (AID 602147).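 Further: cellular assay in HEK293 cells overexpressing GFP-tagged PLD2.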
Chain of Phospholipase D2 (O14939 whole entry): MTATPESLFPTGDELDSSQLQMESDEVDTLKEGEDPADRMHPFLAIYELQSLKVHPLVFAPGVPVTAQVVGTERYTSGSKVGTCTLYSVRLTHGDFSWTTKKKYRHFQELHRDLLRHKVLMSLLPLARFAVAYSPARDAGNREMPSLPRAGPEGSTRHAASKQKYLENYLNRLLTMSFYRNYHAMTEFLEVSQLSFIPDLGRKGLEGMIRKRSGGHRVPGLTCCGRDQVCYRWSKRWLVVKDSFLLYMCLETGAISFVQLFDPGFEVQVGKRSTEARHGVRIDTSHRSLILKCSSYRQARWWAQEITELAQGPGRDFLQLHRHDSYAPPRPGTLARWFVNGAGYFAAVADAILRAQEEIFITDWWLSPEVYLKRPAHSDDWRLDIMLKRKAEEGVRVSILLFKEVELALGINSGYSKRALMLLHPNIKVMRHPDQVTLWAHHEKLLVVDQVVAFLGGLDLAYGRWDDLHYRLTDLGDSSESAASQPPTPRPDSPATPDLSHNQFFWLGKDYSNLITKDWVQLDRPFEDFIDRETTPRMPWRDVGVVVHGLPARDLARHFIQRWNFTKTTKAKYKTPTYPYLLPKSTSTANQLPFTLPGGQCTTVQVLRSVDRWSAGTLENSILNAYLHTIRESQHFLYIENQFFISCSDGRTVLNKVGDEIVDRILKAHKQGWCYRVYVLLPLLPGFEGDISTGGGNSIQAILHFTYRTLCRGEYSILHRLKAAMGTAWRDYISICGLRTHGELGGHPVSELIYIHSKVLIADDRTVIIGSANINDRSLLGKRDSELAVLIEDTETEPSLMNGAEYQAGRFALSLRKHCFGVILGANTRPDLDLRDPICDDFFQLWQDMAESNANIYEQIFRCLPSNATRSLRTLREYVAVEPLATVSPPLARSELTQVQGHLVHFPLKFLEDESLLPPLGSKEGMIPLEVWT
Assay [6] deals with T5, Apoptotic protease-activating factor 1 (Homo sapiens, UniProt O14727).
T5 sequence (O14727 whole entry): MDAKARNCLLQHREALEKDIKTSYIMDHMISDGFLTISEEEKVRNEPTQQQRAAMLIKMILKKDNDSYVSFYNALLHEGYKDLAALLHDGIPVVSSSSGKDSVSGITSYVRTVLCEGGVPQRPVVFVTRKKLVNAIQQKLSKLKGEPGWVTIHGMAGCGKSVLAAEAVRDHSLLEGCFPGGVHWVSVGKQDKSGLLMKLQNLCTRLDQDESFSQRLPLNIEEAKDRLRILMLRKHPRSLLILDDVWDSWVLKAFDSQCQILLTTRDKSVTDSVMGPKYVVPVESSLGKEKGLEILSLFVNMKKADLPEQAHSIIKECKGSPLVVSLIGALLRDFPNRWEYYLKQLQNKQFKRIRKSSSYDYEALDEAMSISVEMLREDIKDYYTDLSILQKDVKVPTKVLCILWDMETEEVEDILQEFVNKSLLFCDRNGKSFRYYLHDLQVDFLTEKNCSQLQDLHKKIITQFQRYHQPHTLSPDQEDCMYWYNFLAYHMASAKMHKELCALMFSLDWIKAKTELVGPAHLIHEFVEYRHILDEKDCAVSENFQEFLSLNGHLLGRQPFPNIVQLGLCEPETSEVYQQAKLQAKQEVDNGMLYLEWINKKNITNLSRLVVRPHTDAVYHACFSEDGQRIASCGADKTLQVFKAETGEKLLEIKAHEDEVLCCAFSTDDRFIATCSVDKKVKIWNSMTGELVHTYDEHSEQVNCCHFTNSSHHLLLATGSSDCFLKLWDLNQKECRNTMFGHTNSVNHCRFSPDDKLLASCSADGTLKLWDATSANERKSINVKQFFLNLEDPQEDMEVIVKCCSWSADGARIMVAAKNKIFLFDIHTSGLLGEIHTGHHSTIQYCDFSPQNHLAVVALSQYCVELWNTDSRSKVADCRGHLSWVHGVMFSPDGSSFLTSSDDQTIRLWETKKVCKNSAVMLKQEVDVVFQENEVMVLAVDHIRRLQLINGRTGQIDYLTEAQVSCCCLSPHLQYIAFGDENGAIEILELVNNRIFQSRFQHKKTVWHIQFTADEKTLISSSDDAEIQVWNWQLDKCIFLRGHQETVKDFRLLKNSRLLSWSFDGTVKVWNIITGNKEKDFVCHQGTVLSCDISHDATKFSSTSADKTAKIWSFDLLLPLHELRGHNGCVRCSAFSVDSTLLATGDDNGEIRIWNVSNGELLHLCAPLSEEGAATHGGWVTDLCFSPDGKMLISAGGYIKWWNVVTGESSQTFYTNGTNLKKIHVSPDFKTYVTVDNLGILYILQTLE
Briefly: SAR analysis of small molecule Activators of Apaf-1 in a Fluorescent assay. To be noted: read-out: EC50_Mean.

For assay [7], the target named is Beta-2 adrenergic receptor (Homo sapiens, UniProt P07550). Briefly: ADRB2 activation measured by internalization – cell-based, FAP fluorogen, flow cytometry, cherry pick 1, dose response (AID 588763). A general note: A flow cytometer gives signals particle by particle.
Chain of Beta-2 adrenergic receptor (P07550 whole entry): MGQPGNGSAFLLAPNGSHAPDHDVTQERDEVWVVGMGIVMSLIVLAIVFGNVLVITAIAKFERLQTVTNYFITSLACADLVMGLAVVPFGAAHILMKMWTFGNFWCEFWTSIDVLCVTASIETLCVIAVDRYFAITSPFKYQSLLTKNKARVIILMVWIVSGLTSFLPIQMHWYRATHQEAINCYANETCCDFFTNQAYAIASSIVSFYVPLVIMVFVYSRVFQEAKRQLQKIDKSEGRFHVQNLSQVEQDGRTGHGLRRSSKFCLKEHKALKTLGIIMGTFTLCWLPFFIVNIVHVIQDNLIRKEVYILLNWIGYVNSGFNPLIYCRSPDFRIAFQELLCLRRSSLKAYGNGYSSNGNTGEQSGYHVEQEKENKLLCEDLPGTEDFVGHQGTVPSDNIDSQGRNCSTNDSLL

Each structure is given as a SMILES string. Active and inactive are the calls of the source.
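Wherever EC50 Mean is given: caspase-3 cleavage of fluorogenic Rh110 DEVD substrate downstream of apoptosome activation.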

Chain of Hexokinase-1 (P19367 whole entry, the tested form may be a part): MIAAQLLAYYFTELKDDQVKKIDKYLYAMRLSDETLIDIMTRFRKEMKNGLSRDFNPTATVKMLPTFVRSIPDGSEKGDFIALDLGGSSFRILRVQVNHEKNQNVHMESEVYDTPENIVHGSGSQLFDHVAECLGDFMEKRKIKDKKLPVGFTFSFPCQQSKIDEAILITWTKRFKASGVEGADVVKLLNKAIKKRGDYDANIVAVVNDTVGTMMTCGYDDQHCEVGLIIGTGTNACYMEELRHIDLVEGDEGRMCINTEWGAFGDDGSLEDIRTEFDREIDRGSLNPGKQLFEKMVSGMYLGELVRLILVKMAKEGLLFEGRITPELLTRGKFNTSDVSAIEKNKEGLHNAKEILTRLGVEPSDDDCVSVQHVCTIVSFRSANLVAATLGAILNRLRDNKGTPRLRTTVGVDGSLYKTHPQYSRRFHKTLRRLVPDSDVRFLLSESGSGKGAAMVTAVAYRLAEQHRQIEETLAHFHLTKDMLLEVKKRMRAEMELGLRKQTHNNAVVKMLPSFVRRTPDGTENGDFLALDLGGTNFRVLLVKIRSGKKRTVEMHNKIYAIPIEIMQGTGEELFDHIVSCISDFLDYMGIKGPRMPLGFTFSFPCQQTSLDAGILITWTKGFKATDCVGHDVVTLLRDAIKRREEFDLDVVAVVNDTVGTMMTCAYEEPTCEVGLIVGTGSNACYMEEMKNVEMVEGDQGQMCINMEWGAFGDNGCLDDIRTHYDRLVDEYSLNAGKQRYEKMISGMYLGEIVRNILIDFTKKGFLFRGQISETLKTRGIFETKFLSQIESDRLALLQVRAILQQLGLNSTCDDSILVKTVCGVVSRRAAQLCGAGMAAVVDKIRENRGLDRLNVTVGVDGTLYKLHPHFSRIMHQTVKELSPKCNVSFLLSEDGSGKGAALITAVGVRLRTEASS

`O=C(Nc1cccc(S(=O)(=O)NCc2ccco2)c1)c1cc(-c2ccccc2)nc2ccccc12`: the IC50 in assay [1] is > 49.7 µM (inactive); in [2], > 5.53 µM (active); on Orexin receptor type 2 [3], 16.9 µM (inactive); in assay [4], 2.98 µM (active); on Orexin receptor type 2 [5] it was > 50 µM (inactive); in the assay with CHO-K1, > 66.2 µM (inactive).
Consider `O=S(=O)(Nc1cccc2ccccc12)c1ccc(Cl)cc1`, for which the IC50 at Hexokinase HKDC1 and on Hexokinase-1 was > 80 µM (inactive) throughout.
In the case of `O=C(NCCN1CCC(n2c(=O)[nH]c3ccc(F)cc32)CC1)c1cccc2c1C(=O)c1ccccc1-2`, the figures for the IC50 at Phospholipase D1 and on Phospholipase D2 were 7 nM (active) and 170 nM (active), respectively.
Regarding `COC(=O)c1coc(-c2ccc(F)cc2)n1`, the EC50 in assay [6] is > 100 µM (inactive).
For `O=C(c1ccc(S(=O)(=O)Nc2ccc(F)cc2)cc1)N1CCN(c2ccccn2)CC1`, the IC50 in assay [1] is 14.7 µM (inactive); in [2], 7.1 µM (active); at Orexin receptor type 2 [3], 15.6 µM (inactive); in [4] it was 4.45 µM (active); at Orexin receptor type 2 [5], > 50 µM (inactive); in the assay on CHO-K1, > 66.2 µM (inactive).
With `C[C@H](CN1CCC2(CC1)C(=O)NCN2c1ccccc1)NC(=O)c1cc(Br)c(Br)o1`, the 50% inhibitory concentration (IC50) on Phospholipase D1 is 330 nM (active); at Phospholipase D2 it was 2300 nM (active).
For the compound `COc1ccc(CNc2cc3n(c(=O)n2)CCc2cc(OC)c(OC)cc2-3)cc1`, the IC50 on Hexokinase HKDC1 and on Hexokinase-1 was > 80 µM (inactive) throughout.
For `CC(=O)c1ccc(OCc2cc(C(=O)N(C)CCOc3ccc(C)cc3)no2)cc1`, the EC50 in [7] was 1.91 µM (active).

Usually IC50 stands for the concentration that gives 50% inhibition.
